Data from patent publication US20100113544A1, “Suppressant for cerebral infarction attributed to long-time ischemia” (Ehime University, priority 2004, published 2010).
Marks after values point to notes of the source that are not given here.

What was measured:
[1] = patients who received the drug; cited from earlier work
[2] = test system: ED1-positive cells (macrophages); assay: Number of ED1-positive cells / macrophages in brain sections (ED1 immunohistochemistry) after 2 h middle cerebral artery occlusion and reperfusion; type: in vivo, rat; details: for number of ED1-positive cells: versus control; for number of ED1-positive cells, Differences (number of macrophages), +0.7 mm to the bregma / number of ED1-positive cells, Differences (number of macrophages), +1.7 mm to the bregma / number of ED1-positive cells, Differences (number of macrophages), −0.3 mm to the bregma: difference between ischemic and non-ischemic sides; for number of ED1-positive cells, Differences (number of macrophages), +0.7 mm to the bregma / number of ED1-positive cells, Differences (number of macrophages), +1.7 mm to the bregma / number of ED1-positive cells, Differences (number of macrophages), −0.3 mm to the bregma / number of ED1-positive cells, +0.7 mm to the bregma / number of ED1-positive cells, +1.7 mm to the bregma / number of ED1-positive cells, −0.3 mm to the bregma: 1000 mg/kg i.p. twice
Method: (§1) One of the causes for organ dysfunction resulting from ischemia is reperfusion injury after recovery of blood flow, and the inflammatory response is an important factor which induces reperfusion injury. Therefore, as an index of inflammation subsequent to reperfusion of blood flow, the numbers of neutrophils and macrophages were determined.
(§2) Thirty-two male Wistar rats weighting about 300 g were divided into 4 groups with 8 rats in each. The middle cerebral artery of all rats was occluded for two hours, as shown in Example 1. […] Subsequently, 12 or 24 hours after recovery of blood flow, the brain was taken out after perfusion with physiological saline. Frozen sections having 6 μm thick was prepared at a distance of about 1.7 mm rostral to the bregma, i.e. anterior fontanel, 0.7 mm rostral to the bregma toward the rostral side, and 0.3 mm caudal to the bregma.
After observing these frozen sections by light microscopy, the total numbers of neutrophils on the ischemic and non-ischemic sides were obtained rseparately. Also, frozen sections obtained from identical rats were subjected to immunochemistry with an antibody for ED1 which is a cell surface marker of macrophages. ED1 is considered to exist in cells besides macrophages, and in fact, ED1-positive cells were also observed on the non-ischemic side in the experiment. However, as in Table 2, neutrophils were not observed on non-ischemia side, where inflammation was not observed. Therefore, with regard to ED1-positive cells, the difference in the number of cells between the ischemic and non-ischemic sides was calculated. The difference was determined as the number of macrophages and compared between each corresponding group. In Tables 2 and 3, “*” denotes a case in which significant differences versus the control group were observed by p<0.05 by Fisher's PLSD (protected least significant difference) tests, and “**” denotes a case in which significant difference was observed by p<0.01.

[3] = test system: neurons in the rat striatum; details: administered 4 times: immediately, 6, 24 and 48 hours after 15 minutes of transient ischemia, rats; cited from earlier work
neutrophils = assay: Number of neutrophils in brain sections (myeloperoxidase immunohistochemistry) after 2 h middle cerebral artery occlusion and reperfusion; type: in vivo, rat; details: for number of neutrophils, +0.7 mm to the bregma / number of neutrophils, +1.7 mm to the bregma / number of neutrophils, −0.3 mm to the bregma: 1000 mg/kg i.p. twice
Method: as §1, §2
After observing these frozen sections by light microscopy, the total numbers of neutrophils on the ischemic and non-ischemic sides were obtained rseparately. Also, frozen sections obtained from identical rats were subjected to immunochemistry with an antibody for ED1 which is a cell surface marker of macrophages. […] Therefore, with regard to ED1-positive cells, the difference in the number of cells between the ischemic and non-ischemic sides was calculated. The difference was determined as the number of macrophages and compared between each corresponding group.

[4] = test system: pyramidal neurons in the hippocampal CA-1 region; details: administration prior to transient ischemia (5 or 10 minutes forebrain ischemia), rat; cited from earlier work
[5] = test system: cerebral infarction after 2 hours middle cerebral artery occlusion in male Wistar rats; assay: Size of cerebral infarction (triphenyltetrazolium chloride staining, planimetry) 24 h after reperfusion following 2 h middle cerebral artery occlusion; type: in vivo, rat; details: for size of cerebral infarction, Cerebral cortex / size of cerebral infarction, Striatum / size of cerebral infarction, Total: mean ± SD
Excerpt: These rats were anesthetized with a gas mixture of 2% halothane, 49% oxygen and 49% laughing gas, i.e. N2O, and kept under spontaneous breathing. Subsequently, a median incision was made in the neck of the rat placed on its back, and the right common carotid artery was exposed. After an intraperitoneal injection of 100 units of heparin, the root of the right middle cerebral artery was occluded by inserting 4·0 nylon thread coated with silicone into the right internal carotid artery from the bifurcation of the internal and external carotid arteries. The tip of the nylon thread was placed 18 mm from the bifurcation. After suture of the incision of the skin, the rats were allowed to recover from anesthesia. During surgery, an electronic thermometer was inserted into the rectum, and the temperature of the rectum was maintained at 37.0±0.1° C. with a lamp.
Five minutes before reperfusion of blood flow, the rats were anesthetized again. After opening the skin suture, the cerebral blood flow was resumed by removing the nylon thread by 5 mm 2 hours after middle cerebral artery occlusion. […] After recovery from anesthesia, the rats were allowed to access food and water freely.
Twenty-four hours after recovery of blood flow, sodium pentobarbital was intraperitoneally administered to the rats for anesthesia. Subsequently, the brain was perfused with heparinized-physiological saline, and the rat was decapitated. The brain was quickly taken out, and rinsed in physiological saline. The brain was sliced coronally between the optic chiasm and the caucal edge of the mammillary body at a thickness of 2 mm. These brain slices were subjected to incubation with 2% triphenyltetrazolium chloride in phosphate buffer (0.1 mol/L, pH 7.4) at 37° C. As a result, due to the action of dehydrogenase present in viable cells, triphenyltetrazolium chloride was reduced, and the tissue was stained in dark red. On the other hand, the dead tissue in the infarcted area was not stained. These brain slices were preserved in phosphate-buffered formalin overnight. […] The obtained size of cerebral infarction was subjected to analysis of variance and the Scheffe test.
The values in the table (unit: mm^3) indicate the size of cerebral infarction as the “mean ±standard deviation”, while “*” denotes a case in which it was significant versus the control group by p<0.05, and “**” denotes a case in which it was significant versus the control group by p<0.01.

[6] = 12 hours after the onset of reperfusion
[7] = 12 hours after the onset of reperfusion, ischemic side
[8] = 12 hours after the onset of reperfusion, non-ischemic side
[9] = 24 hours after the onset of reperfusion
[10] = 24 hours after the onset of reperfusion, ischemic side
[11] = 24 hours after the onset of reperfusion, non-ischemic side
[12] = 12 hours after onset of reperfusion, ischemic side
[13] = 12 hours after onset of reperfusion, non-ischemic side
[14] = 24 hours after onset of reperfusion, ischemic side
[15] = 24 hours after onset of reperfusion, non-ischemic side
[16] = administration after ischemia, 200 mg/kg i.p. immediately and 6 h after reperfusion
[17] = administration after ischemia, 500 mg/kg i.p. immediately and 6 h after reperfusion
[18] = administration after ischemia, 1000 mg/kg i.p. immediately and 6 h after reperfusion
[19] = administration before ischemia, 1000 mg/kg i.p. once 10 min before occlusion, 24 h after reperfusion

## CC1=NN(c2ccccc2)C(=O)C1 [edaravone]
[1]
  patients who showed abnormal values in laboratory tests on the liver function: 21.4%

## N[C@@H](Cc1c[nH]cn1)C(=O)O [histidine]
[2]; 12 hours after ischemia for 2 hours, cross section at +0.7 mm rostral to the bregma
  number of ED1-positive cells: significantly decreased
[2]; [6]
  number of ED1-positive cells, Differences (number of macrophages), +0.7 mm to the bregma: 123 ± 100*
  number of ED1-positive cells, Differences (number of macrophages), +1.7 mm to the bregma: 135 ± 101
  number of ED1-positive cells, Differences (number of macrophages), −0.3 mm to the bregma: 92 ± 107
[2]; [7]
  number of ED1-positive cells, +0.7 mm to the bregma: 450 ± 190
  number of ED1-positive cells, +1.7 mm to the bregma: 366 ± 149
  number of ED1-positive cells, −0.3 mm to the bregma: 363 ± 186
[2]; [8]
  number of ED1-positive cells, +0.7 mm to the bregma: 328 ± 113
  number of ED1-positive cells, +1.7 mm to the bregma: 238 ± 95
  number of ED1-positive cells, −0.3 mm to the bregma: 309 ± 72
[2]; 24 hours after ischemia, all cross sections
  number of ED1-positive cells: significant decreases
[2]; [9]
  number of ED1-positive cells, Differences (number of macrophages), +0.7 mm to the bregma: 141 ± 104*
  number of ED1-positive cells, Differences (number of macrophages), +1.7 mm to the bregma: 125 ± 72*
  number of ED1-positive cells, Differences (number of macrophages), −0.3 mm to the bregma: 190 ± 93*
[2]; [10]
  number of ED1-positive cells, +0.7 mm to the bregma: 264 ± 101
  number of ED1-positive cells, +1.7 mm to the bregma: 230 ± 57
  number of ED1-positive cells, −0.3 mm to the bregma: 340 ± 107
[2]; [11]
  number of ED1-positive cells, +0.7 mm to the bregma: 124 ± 34
  number of ED1-positive cells, +1.7 mm to the bregma: 104 ± 28
  number of ED1-positive cells, −0.3 mm to the bregma: 150 ± 46
[3]
  neuronal death 7 days after ischemia caused by apoptosis: depressed
neutrophils; 12 hours after ischemia, histidine-administration group versus control
  neutrophil infiltration: significantly suppressed
neutrophils; [12]
  number of neutrophils, +0.7 mm to the bregma: 128 ± 82
  number of neutrophils, +1.7 mm to the bregma: 101 ± 80
  number of neutrophils, −0.3 mm to the bregma: 106 ± 54
neutrophils; [13]
  number of neutrophils, +0.7 mm to the bregma: 0 ± 0
  number of neutrophils, +1.7 mm to the bregma: 1 ± 2
  number of neutrophils, −0.3 mm to the bregma: 0 ± 0
neutrophils; [14]
  number of neutrophils, +0.7 mm to the bregma: 250 ± 169
  number of neutrophils, −0.3 mm to the bregma: 287 ± 162
neutrophils; [15]
  number of neutrophils, +0.7 mm to the bregma: 0 ± 0
  number of neutrophils, +1.7 mm to the bregma: 1 ± 2
  number of neutrophils, −0.3 mm to the bregma: 0 ± 0
[4]
  programmed death (delayed neuronal death) of neurons: depressed
[5]; 200 mg/kg immediately after reperfusion and 6 hours thereafter
  infarcted volume compared with that of the control group: 71%
[5]; 500 mg/kg immediately after reperfusion and 6 hours thereafter
  infarcted volume compared with that of the control group: 39%
[5]; 1000 mg/kg immediately after reperfusion and 6 hours thereafter
  infarcted volume compared with that of the control group: 7%
[5]; [16]
  size of cerebral infarction, Cerebral cortex: 78.8 ± 52.3 mm^3
  size of cerebral infarction, Striatum: 34.3 ± 23.0 mm^3
  size of cerebral infarction, Total: 113.2 ± 74.0 mm^3
[5]; [17]
  size of cerebral infarction, Cerebral cortex: 39.9 ± 44.5 mm^3
  size of cerebral infarction, Striatum: 19.1 ± 24.4** mm^3
  size of cerebral infarction, Total: 59.0 ± 63.4* mm^3
[5]; [18]
  size of cerebral infarction, Cerebral cortex: 7.5 ± 13.3** mm^3
  size of cerebral infarction, Striatum: 3.3 ± 12.8** mm^3
  size of cerebral infarction, Total: 10.7 ± 14.5** mm^3
[5]; [19]
  size of cerebral infarction, Cerebral cortex: 81.4 ± 26.0 mm^3
  size of cerebral infarction, Striatum: 34.4 ± 16.0 mm^3
  size of cerebral infarction, Total: 115.8 ± 39.2 mm^3
[5]; pre-ischemic histidine 1000 mg/kg administration group
  size of infarction compared with that of the control group: no significant difference
